One experiment relates to A549 cells. Description: IL-1β stimulated IL-6 Production in A549 cells. The format is cell-based. The settings on record: Homo sapiens, 1 ng/ml rhIL1β, 18 hrs; for activity at 5 µM: 5 μM compound, read-out: IL-6 Production % Control 5 μM; for activity at 50 µM: 50 μM compound, read-out: IL-6 Production % Control 50 μM; for IC50: read-out: IL-6 Production IC. Here is the method:
IL-1β stimulated IL-6 Production in A549 cells: The cellular efficacy of compound candidates is determined using the human lung epithelial cell line A549 (ATCC #CCL-185), based upon the methods of Wheeler et al. (2004) J. Nutrition 134, 1039-1044, and Eda et al. (2011) Cell Biol. Int. 35, 355-358. A549 cells produce a number of cytokines (IL6, IL8 and TNFα) in response to stimulation with IL1β. To induce the production of inflammatory mediators, A549 cells are plated at a final concentration of 3×10^5 cells/well of a 96 well flat bottom plate in F12-K medium supplemented with 10% fetal bovine serum, 100 units/ml penicillin and 100 μg/ml streptomycin (Gibco BRL Life Technologies). Cells are treated with or without inhibitors for 3 hrs then stimulated with 1 ng/ml rhIL1β (R & D Systems) for an additional 18 hrs at 37° C. with 5% CO2. The supernatants are removed and stored at −20° C. until they are to be assayed. The levels of inflammatory mediators are determined using commercial MSD cytokine kits (Meso Scale Discovery) as per the manufacturer's instructions. Standard curves are based on 7 steps of 4× serial dilutions, with a wide dynamic range of 10000 pg/ml to 2.4 pg/ml, and the blank in triplicate. Lower limit of detection (LLOD) is calculated at the commonly used 3× the standard deviation of the blank.
Compounds were tested in accordance with the above described assay, yielding the values described below: […]

For a further experiment, the target named is TAK1-TAB1 (Homo sapiens (Human), UniProt O43318). The experiment can be described thus: TAK1-TAB1 competitive binding assay (LanthaScreen), without pre-incubation. The following applies: 10 nM TAK1-TAB1, 100 nM kinase tracer-236, read-out: TAK1-TAB1 Inhibition IC50. The text has this:
TAK1-TAB1 Binding Inhibitory Potency: The ability of candidate compounds to interact with TAK1-TAB1 is quantitated by a competitive binding assay using the LanthaScreen technology developed by Life Technologies. This assay is based on the binding of a proprietary, Alexa Fluor® 647-labeled, ATP-competitive kinase inhibitor (kinase tracer-236) to the TAK1-TAB1 construct in presence of a europium-conjugated antibody, resulting in a FRET (fluorescence resonance energy transfer) signal. Displacement of the kinase tracer by compound results in a lower emission ratio upon excitation of the europium chelate. Candidate compounds are designed as potential irreversible inhibitors of TAK1-TAB1, capable of ligating to an active site cysteine residue. The time dependent nature of irreversible inhibition is investigated by performing the binding assay with and without a pre-incubation of compound and TAK1-TAB1.
The inhibitory potency of candidate compounds is measured in 20 mM HEPES pH 7.5, 10 mM MgCl2, 0.01% BSA, 0.0005% Tween-20, and 2% DMSO in the presence of 10 nM TAK1-TAB1, 2 nM Eu-anti-his antibody, and 100 nM kinase tracer-236 using a 384-well plate format. Background signal is defined in the absence of TAK1-TAB1 and uninhibited signal is defined in the presence of vehicle (2% DMSO) alone. Compounds were evaluated in an 11 point dose-response ranging from 20 μM to 0.34 nM. The binding assays are performed under two conditions to evaluate time dependence of inhibition. For the pre-incubation assay, TAK1-TAB1 and Eu-anti-his antibody are preincubated with compound or vehicle for two hours prior to the addition of kinase tracer. The non-preincubated assay is run in which TAK1-TAB1 and Eu-anti-his antibody are added to a mixture of compound and kinase tracer. IC50 values of compounds are determined using a 4 parameter logistical fit of emission ratio as a function of the concentration of compound.
Compounds were tested in accordance with the above described assay, without pre-incubation, yielding the values described below: […]
Background: In TR-FRET formats the signal depends on donor and acceptor labels being close together.

Sequence of TAK1-TAB1 (O43318 other isoform, or with tags, fused parts or gaps): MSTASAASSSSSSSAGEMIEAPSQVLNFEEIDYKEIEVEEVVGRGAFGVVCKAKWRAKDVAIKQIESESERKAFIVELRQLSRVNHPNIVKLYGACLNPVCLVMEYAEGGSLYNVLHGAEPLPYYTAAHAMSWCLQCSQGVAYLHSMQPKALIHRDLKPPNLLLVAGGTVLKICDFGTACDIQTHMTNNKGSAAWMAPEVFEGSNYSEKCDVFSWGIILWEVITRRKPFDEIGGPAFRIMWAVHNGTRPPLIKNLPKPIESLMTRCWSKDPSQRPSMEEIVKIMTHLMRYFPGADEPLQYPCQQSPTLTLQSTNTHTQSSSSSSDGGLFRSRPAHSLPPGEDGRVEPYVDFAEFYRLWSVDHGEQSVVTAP

With `C=C(C#N)c1c[nH]c2ncnc(OCC(C)C)c12` [Example 197, 2-(4-isobutoxy-7H-pyrrolo[2,3-d]pyrimidin-5-yl)acrylonitrile], in the experiment with A549 cells, the activity at 5 µM came out at 128% and the activity at 50 µM worked out at 75%. Besides, the IC50 at TAK1-TAB1 amounted to 750 nM.

Turning to `CC(C)COc1ncnc2[nH]cc(/C=C\C#N)c12` [Example 36, (Z)-3-(4-isobutoxy-7H-pyrrolo[2,3-d]pyrimidin-5-yl)acrylonitrile], the IC50 at TAK1-TAB1 was 170 nM.

Regarding `CC(C)COc1ncnc2[nH]cc(C#CC(N)=O)c12` [Example 186, 3-(4-isobutoxy-7H-pyrrolo[2,3-d]pyrimidin-5-yl)propiolamide], in the experiment on A549 cells, the IC50 came to 850 nM, the activity at 5 µM worked out at 1% and the activity at 50 µM was 0%.

Take `CC(C)COc1ncnc2[nH]cc(C/C=C/C(N)=O)c12` [Example 198, 4-(4-isobutoxy-7H-pyrrolo[2,3-d]pyrimidin-5-yl)-but-2-enoic acid amide]: in the experiment with A549 cells, the IC50 was determined as 8400 nM, the activity at 5 µM turned out to be 4% and the activity at 50 µM worked out at 0%. Also, the IC50 at TAK1-TAB1 was 420 nM.

In the case of `CCNC(=O)/C=C/c1c[nH]c2ncnc(OCC(C)C)c12` [Example 179, (E)-N-ethyl-3-(4-isobutoxy-7H-pyrrolo[2,3-d]pyrimidin-5-yl)acrylamide], in the experiment on A549 cells, the IC50 came out at 87 nM, the activity at 5 µM is 0% and the activity at 50 µM was 0%. The IC50 at TAK1-TAB1 stood at 340 nM.

Take `CC(=O)/C=C/c1c[nH]c2ncnc(OCC(C)C)c12` [Example 37, (E)-4-(4-isobutoxy-7H-pyrrolo[2,3-d]pyrimidin-5-yl)but-3-en-2-one]: the IC50 on TAK1-TAB1 was 100 nM.

As to `CC(C)COc1ncnc2[nH]cc(/C=C/C(=O)NC[C@H](C)O)c12` [Example 182, (S,E)-N-(2-hydroxypropyl)-3-(4-isobutoxy-7H-pyrrolo[2,3-d]pyrimidin-5-yl)acrylamide], in the experiment on A549 cells, the IC50 was determined as 3400 nM, the activity at 5 µM was 36% and the activity at 50 µM stood at 1%. The IC50 at TAK1-TAB1 worked out at 1600 nM.

On to `COC(=O)/C(C)=C/c1c[nH]c2ncnc(OCC(C)C)c12` [Example 177, (E)-methyl 3-(4-isobutoxy-7H-pyrrolo[2,3-d]pyrimidin-5-yl)-2-methylacrylate], for which, in the experiment on A549 cells, the IC50 was determined as 620 nM, the activity at 5 µM stood at 0% and the activity at 50 µM worked out at 0%.

As for `CC(C)(O)COc1ncnc2[nH]cc(/C=C/C(N)=O)c12` [Example 193, (E)-3-(4-(2-hydroxy-2-methylpropoxy)-7H-pyrrolo[2,3-d]pyrimidin-5-yl)acrylamide], in the experiment with A549 cells, the IC50 was found to be 1200 nM, the activity at 5 µM was determined as 22% and the activity at 50 µM was determined as 0%. The IC50 on TAK1-TAB1 amounted to 75 nM.

On to `CC(C)(C)Oc1ncnc2[nH]cc(/C=C/C(N)=O)c12` [Example 195, (E)-3-(4-(tert-butoxy)-7H-pyrrolo[2,3-d]pyrimidin-5-yl)acrylamide], for which, in the experiment on A549 cells, the IC50 was determined as 920 nM, the activity at 5 µM was 19% and the activity at 50 µM amounted to 1%. Further, the IC50 on TAK1-TAB1 was 13 nM.

As for `CC(C)COc1ncnc2[nH]cc(/C=C/C(=O)NC[C@@H](C)O)c12` [Example 183, (R,E)-N-(2-hydroxypropyl)-3-(4-isobutoxy-7H-pyrrolo[2,3-d]pyrimidin-5-yl)acrylamide], in the experiment with A549 cells, the IC50 came to 12000 nM, the activity at 5 µM amounted to 78% and the activity at 50 µM was 1%. The IC50 at TAK1-TAB1 was 2500 nM.

For the compound `CC(C)COc1ncnc2[nH]cc(C=C(F)C(N)=O)c12` (stereo in doubt) [Example 200, (E) 2-fluoro-3-(4-isobutoxy-7H-pyrrolo[2,3-d]pyrimidin-5-yl)-acrylamide], in the experiment with A549 cells, the activity at 5 µM amounted to 61% and the activity at 50 µM was found to be 14%. Moreover, the IC50 at TAK1-TAB1 was 860 nM.

For `COC(=O)/C=C/c1c[nH]c2ncnc(OCC(C)C)c12` [Example 176, (E)-methyl 3-(4-isobutoxy-7H-pyrrolo[2,3-d]pyrimidin-5-yl)acrylate], in the experiment with A549 cells, the activity at 5 µM was 1% and the activity at 50 µM amounted to 0%. Moreover, on TAK1-TAB1, the IC50 worked out at 200 nM.

In the case of `NC(=O)/C=C/c1c[nH]c2ncnc(Oc3ccccc3)c12` [Example 190, (E)-3-(4-phenoxy-7H-pyrrolo[2,3-d]pyrimidin-5-yl)acrylamide], in the experiment on A549 cells, the IC50 turned out to be 1000 nM, the activity at 5 µM came to 15% and the activity at 50 µM worked out at 0%. Besides, at TAK1-TAB1, the IC50 amounted to 170 nM.

As for `CC(C)COc1ncnc2[nH]cc(C#N)c12` [Example 1, 4-isobutoxy-7H-pyrrolo[2,3-d]pyrimidine-5-carbonitrile], in the experiment on A549 cells, the activity at 5 µM came to 83% and the activity at 50 µM is 6%. Besides, at TAK1-TAB1, the IC50 worked out at 560 nM.

Regarding `CC(C)COc1ncnc2[nH]cc(/C=C/C(=O)NCC3CC3)c12` [Example 180, (E)-N-(cyclopropylmethyl)-3-(4-isobutoxy-7H-pyrrolo[2,3-d]pyrimidin-5-yl)acrylamide], in the experiment with A549 cells, the IC50 was determined as 630 nM, the activity at 5 µM was 2% and the activity at 50 µM stood at 0%. For the same compound, the IC50 on TAK1-TAB1 came to 380 nM.

For the compound `CC(C)COc1ncnc2[nH]cc(C(=O)CCl)c12` [Example 23, 2-chloro-1-(4-isobutoxy-7H-pyrrolo[2,3-d]pyrimidin-5-yl)ethanone], in the experiment on A549 cells, the IC50 amounted to 12000 nM, the activity at 5 µM was determined as 117% and the activity at 50 µM is 0%. At TAK1-TAB1, the IC50 was 280 nM.

In the case of `CC(C)COc1ncnc2[nH]cc(/C=C/C(=O)NC3CC3)c12` [Example 181, (E)-N-cyclopropyl-3-(4-isobutoxy-7H-pyrrolo[2,3-d]pyrimidin-5-yl)acrylamide], in the experiment on A549 cells, the IC50 came out at 180 nM, the activity at 5 µM worked out at 1% and the activity at 50 µM was 0%. Further, the IC50 on TAK1-TAB1 amounted to 180 nM.

As to `CCCOc1ncnc2[nH]cc(/C=C/C(N)=O)c12` [Example 189, (E)-3-(4-propoxy-7H-pyrrolo[2,3-d]pyrimidin-5-yl)acrylamide], in the experiment on A549 cells, the IC50 was found to be 180 nM, the activity at 5 µM came out at 0% and the activity at 50 µM worked out at 0%. Further, on TAK1-TAB1, the IC50 came to 19 nM.

Regarding `CCC(C)Oc1ncnc2[nH]cc(/C=C/C(N)=O)c12` (stereo not drawn) [Example 187, (E)-3-(4-(sec-butoxy)-7H-pyrrolo[2,3-d]pyrimidin-5-yl)acrylamide], in the experiment with A549 cells, the IC50 was determined as 190 nM, the activity at 5 µM worked out at 0% and the activity at 50 µM is 0%. Further, the IC50 on TAK1-TAB1 stood at 4.3 nM.

Consider `NC(=O)/C=C/c1c[nH]c2ncnc(OCc3cccc(F)c3)c12` [Example 194, (E)-3-(4-((3-fluorobenzyl)oxy)-7H-pyrrolo[2,3-d]pyrimidin-5-yl)acrylamide], for which, in the experiment on A549 cells, the IC50 is 43 nM, the activity at 5 µM came to 1% and the activity at 50 µM turned out to be 1%.

For the compound `N#C/C=C/c1c[nH]c2ncnc(OCc3ccccc3)c12` [Example 93, (E)-3-(4-benzyloxy-7H-pyrrolo[2,3-d]pyrimidin-5-yl)-acrylonitrile], in the experiment with A549 cells, the IC50 is 2200 nM, the activity at 5 µM was 21% and the activity at 50 µM amounted to 15%.

On to `CC(C)COc1ncnc2[nH]cc(/C=C/C#N)c12` [Example 35, (E)-3-(4-isobutoxy-7H-pyrrolo[2,3-d]pyrimidin-5-yl)acrylonitrile], for which the IC50 at TAK1-TAB1 amounted to 210 nM.

(Values after US9505765B2, “4-alkoxy/aralkoxy-5-substituted-pyrrolopyrimidine compounds as TAK1 inhibitors in disease treatment” (Confluence Life Sciences Inc., priority 2012, dated 2016).)
